Like-named read-outs stand apart in the source and are kept apart here.
Key:
adult mongrel dogs [1] = assay: Acute in vivo cardiotonic activity in anesthetized dogs; design: species or system dog (adult mongrel); conditions: Canis lupus familiaris, 8.75 mg/kg intravenous, relative to controls
Protocol: The acute in vivo cardiotonic activity of compounds prepared according to the present invention was determined according to a modification of the procedure described by Alousi et al., Circ. Res., 45, 666 (1979).
In particular, adult mongrel dogs were anesthetized with sodium pentobarbital and were artificially respired. Arterial pressure was monitored via a femoral artery, and the pulse pressure was used to trigger a cardiotachometer for heart rate. Left ventricular pressure was determined with a Millar catheter, and dP/dt (the change in ventricular pressure with time) was derived. Cardiac output was determined by measuring ascending aortic blood flow with an electromagnetic flow probe, and myocardial contractile force was measured with a Walton Brodie strain gauge sutured to the right ventricle. Lead II EKG was also recorded.
A standard dose (10 μ/kg/min) of dopamine was administered to assess myocardial responsiveness.
Compounds of the invention were administered by intravenous infusion or bolus oral administration, and the effects on cardiovascular parameters were determined.
Dose related effects on the test compound on blood pressure (BP), heart rate (HR), maximum change in left ventricular pressure with time (dP/dt max), % change in cardiac force (CF) and the increase in mean arterial blood pressure relative to controls (MABP) were compared to pretreatment control values, expressed as a % change and rated for activity. Statistical evaluations were made using the appropriate parametric test against controls.

adult mongrel dogs [2] = assay: Renal vasodilating activity in anesthetized dogs; format: in vivo, dog (adult mongrel); conditions: Canis lupus familiaris, 6.2 mg/kg intravenous, relative to controls
Protocol: Goldberg et al, J. Pharmacol. Exp. Ther., 163, 188 (1968), performed an investigation of the structural requirements for dopamine-like renal vasodilation of phenethylamines and apmorphine. The following procedure is a variation of the assay described in that report.
Adult mongrel dogs were anesthetized and surgically prepared for electromagnetic measurement of renal artery blood flow. A carotid artery was cannulated for measuring arterial blood pressure, and drugs were administered intravenously or intraarterially (via the renal artery). Heart rate was monitored with a cardiotachometer. Renal vascular resistance was calculated as the ratio of mean arterial blood pressure/renal artery blood flow. Dopamine was infused intravenously at […] for ten minutes (at an infusion rate of about 1 ml/min) to determine responsiveness of each dog to renal dopamine receptor stimulation. Cumulative dose-response data were obtained by infusing a compound of this invention at progressively increasing (usually three-fold) infusion rates, esch dose being infused for five minutes. The maximum percent increase from pre-drug control in renal artery blood flow (or a decrease in renal vascular resistance) was determined for each infusion dose.
RBF values are percent increase in renal blood flow. RVR values are percent increase in renal vascular resistance. MABP and HR are increases in mean arterial blood pressure and heart rate, respectively, relative to controls.

[3] = read-out: HR, percent change in heart rate
[4] = read-out: MABP, mean arterial blood pressure

## COc1cc2c(C)nc(O)c(NC(C)=O)c2cc1OC [Compound BG, 4-Acetamido-3-hydroxy-6,7-dimethoxy-1-methylisoquinoline Hemihydrate]
Adult mongrel dogs [1]; read-out: CF, percent change in cardiac force
  change in vivo at 8.75 mg/kg: 47%
Adult mongrel dogs [1]; [3]
  change in vivo at 8.75 mg/kg: 5%
Adult mongrel dogs [1]; [4]
  change in vivo at 8.75 mg/kg: -3%
Adult mongrel dogs [1]; read-out: dP/dt, maximum change left ventricular pressure with time
  change in vivo at 8.75 mg/kg: 33%
Adult mongrel dogs [2]; [3]
  change in vivo at 6.2 mg/kg: 14%
Adult mongrel dogs [2]; [4]
  change in vivo at 6.2 mg/kg: 6%
Adult mongrel dogs [2]; read-out: RBF, renal blood flow
  change in vivo at 6.2 mg/kg: 39%
Adult mongrel dogs [2]; read-out: RVR, renal vascular resistance
  change in vivo at 6.2 mg/kg: -24%

— patent US4714705A, “4-nitrogen substituted isoquinolinol compounds having cardiotonic, phosphodiesterase fraction III inhibiting properties and/or renal vasodilating properties” (Ortho Pharmaceutical Corporation, priority 1986, dated 1987)
